How the values were obtained:
Format in all cases: in vivo, human
[1] = Comparison of the CaHMB and HMB-acid strength studies; conditions: comparison of two separate studies
Description: A study was conducted to examine the effects of CaHMB on strength. A second study was conducted to examine the effects of HMB-acid on strength. The results of these studies were then compared to determine the improved efficacy of HMB-acid over CaHMB on increasing strength gains.
Thirty-two male volunteers 19-22 yr of age were selected for the study. Body weight averaged 99.3±3.4 kg with a range of 72-136 kg and height was 185±1.5 cm with a range of 170-198 cm. Almost all subjects were engaged in some form of exercise program before the study.
Body composition was measured with TOBEC except that all subjects were measured after an overnight fast. Measurements were made on the Friday morning before the start of the experiment and each Friday thereafter. Strength measurements were made the week before the study and consisted of three standard strength measurements: the bench press, the squat, and the hang clean. Treatments and exercise regimens were started on Monday. The exercise regimen consisted of weight training 6 day s/wk, which included work on all major muscle groups, and lasted from 2 to 3 h/day. Aerobic training was also included in the exercise workout at least three times per week. […]
Differences between the two treatment groups were determined with at-test. […] Trends were determined for 0.05<P<0.11, and differences were considered not significant for P>0.11. […]

[2] = Example 3: plasma HMB with probiotic supplementation; conditions: 0.8 g HMB-FA vs 1.0 g CaHMB; before and after 14 days of probiotic
Description: A study was conducted to examine the bioavailability of HMB-acid and CaHMB when also administering a probiotic. Six volunteers were tested before and after two weeks of probiotic supplementation. Between trials, each volunteer took one dose of probiotics (BC^30) every morning for 14 days. At each trial, baseline plasma HMB levels were measured, then gave each volunteer one serving of HMB (1.0 g of CaHMB or 0.8 g of HMB-FA). Plasma HMB levels were measured at 2, 5, 10, 15, 25, 35, 45, 60, 90, 120, 150, and 180 min, as well as at 6, 12, and 24 hours.

[3] = 12-week periodized resistance-training study of HMB-FA: strength and power
Excerpt: The current study was a randomized, double-blind, placebo- and diet-controlled experiment consisting of a 12-week-periodized resistance-training program. The training protocol was divided into three phases and consisted of a non-linear-periodized resistance-training program for the first 8 weeks, followed by a 2-week overreaching cycle, and finally a 2-week taper of the training volume. Muscle mass, body composition, strength, power, resting plasma testosterone, cortisol, and creatine kinase (CK) levels were examined collectively at the end of weeks 0, 4, 8, and 12 to assess the chronic effects of HMB; these measures were also assessed at the end of weeks 9 and 10, corresponding to the mid- and endpoints of the phase 2 overreaching cycle.
Twenty-four resistance-trained males were tested and included in the study. Subjects were organized into quartile blocks based on their LBM and strength. Following this, each quartile was randomized to one of the treatment groups using computer-generated random numbers. After treatment assignment, the groups were assessed to confirm there were no differences between groups. Of those randomized to the treatments, three subjects dropped from the placebo group, two because of injury and one because of the time commitment, while one dropped from the HMB-FA group due to injury. All drop outs occurred during the first 4 weeks of the study. The remaining 20 subjects (21.6±0.5 years of age) consisting of nine placebo (87.1±4.8 kg; 180.9 cm) and 11 supplemented (83.1±2.8 kg; 179.0±2.1) males with an average squat, bench press, and deadlift of 1.7±0.04, 1.3±0.04, and 2.0±0.05 times their bodyweight, respectively, completed the study. There were no significant differences for age, body weight, height, or BMI between the treatment groups at the start of the study
Strength was assessed via a one-repetition maximum (1-RM) testing of the back squat, bench press, and deadlift. The intraclass correlation coefficient (ICC) for the test-retest of strength in the squat, bench press, and deadlift ranged from r=0.956 to 0.982. Body composition [LBM, fat mass (FM), and total mass] was determined on a Lunar Prodigy dual X-ray absorptiometry (DXA) apparatus (software version, enCORE 2008, Madison, Wis., USA). Tests for the DXA were performed at the same time of day in a fasted state and the ICC was r=0.981. Skeletal muscle hypertrophy was assessed via changes in ultrasonography (GE Logiq e 2008, Wauwatosa, Wis., USA) determined combined muscle thickness of the vastus lateralis (VL) and vastus intermedius (VI) muscles. The ICC for the test-retest of muscle thickness measurements was r=0.975.
Peak power (PP) was assessed during maximal cycling (modified Wingate test) and jumping movements. During the cycling test, the volunteer was instructed to cycle against a predetermined resistance (7.5% of body weight) as fast as possible for 10 s on a cycle ergometer (Monark model 894e, Vansbro, Sweden). Wingate PP was recorded using Monark anaerobic test software (Version 1.0, Monark, Vansbro, Sweden). From completion of Wingate tests performed over several days, the ICC for Wingate PP was 0.966.
Measurements of PP for the vertical jump were also taken on a multicomponent AMTI force platform (Advanced Mechanical Technology, Watertown, Mass. USA) which interfaced with a personal computer at a sampling rate of 1,000 Hz). Data acquisition software (LabVIEW, version 7.1; National Instruments Corporation, Austin, Tex., USA) was used to calculate vertical jump PP. The ICC for VJ PP was 0.971.
Prior to the study, participants were randomly assigned to receive either 3 g per day of HMB-FA or a placebo divided equally into three servings. Each serving was formulated with 1 g of HMB-FA. The first serving was given 30 min prior to exercise and the remaining two servings given with the mid-day and evening meals. On the non-training days, participants were instructed to consume one serving with each of three separate meals throughout the day. […]

[4] = after 12 weeks of training, 3 g per day

For CC(C)(O)CC(=O)O [HMB-acid, 3-hydroxy-3-methylbutyric acid], the “net percent increase per week in squat and bench press, greater than with CaHMB” value [1] was roughly 80%, the “time to peak plasma HMB, retention and bioavailability versus CaHMB” value [2] was “faster time to peak plasma levels, greater retention of HMB, and improved bioavailability” and the “increase in vertical jump power” value ([3]; after 12 weeks) was 19%. For the same molecule, the “strength increase, bench press” value [3, 4] was 12%, the “strength increase, deadlift” value [3, 4] was 16% and the “strength increase, squat” value [3, 4] was 25%. The “strength increase, total strength” value [3, 4] was 18%, the “increase in Wingate peak power” value ([3]; over the 12-week study) was 18% and the total strength increase ([3]; over the 12-week study, 3 g per day) was 77.1 ± 18.4 kg.

Source: patent US20210113501A1, “METHOD OF ADMINISTERING BETA-HYDROXY-BETA-METHYLBUTYRATE (HMB)” (Metabolic Technologies, Inc., priority 2009, published 2021)
